From US20250049727A1, “COMPOSITIONS FOR THE DELIVERY OF PAYLOAD MOLECULES TO AIRWAY EPITHELIUM” (ModernaTX, Inc., priority 2021, published 2025)
Where a name gives a salt, the structure may show the parent alone.

Assay: Nanoparticle zeta potential (Malvern Zetasizer Nano ZS)
Format: physicochemical
Details: LNP with sterol amine, core LNP Compound 18, DSPC, Cholesterol, and DMG-PEG 2K, [mRNA] 0.01 mg/mL in 0.1×PBS
Description: LNPs were prepared according to Example 2. Zeta potential was measured by diluting LNPs to [mRNA] 0.01 mg/mL in 0.1×PBS on a Malvern Zetasizer (Nano ZS).

| SMILES | Zeta Potential | Zeta Potential (β-sitosterol) |
| --- | --- | --- |
| CC(C)CCC[C@@H](C)[C@H]1CC[C@H]2[C@@H]3CC=C4C[C@@H](OC(=O)N(CCCN)CCCCNCCCN)CC[C@]4(C)[C@H]3CC[C@]12C [SA3, (3S,8S,9S,10R,13R,14S,17R)-10,13-dimethyl-17-((R)-6-methylheptan-2-yl)-2,3,4,7,8,9,10,11,12,13,14,15,16,17-tetradecahydro-1H-cyclopenta[a]phenanthren-3-yl (3-aminopropyl)(4-((3-aminopropyl)amino)butyl)carbamate, trihydrochloride salt] | 10.6 mV | – |
| CC(C)CCC[C@@H](C)[C@H]1CC[C@H]2[C@@H]3CC=C4C[C@@H](OC(=O)NCCNC(=N)N)CC[C@]4(C)[C@H]3CC[C@]12C [SA23, (3S,8S,9S,10R,13R,14S,17R)-10,13-dimethyl-17-((R)-6-methylheptan-2-yl)-2,3,4,7,8,9,10,11,12,13,14,15,16,17-tetradecahydro-1H-cyclopenta[a]phenanthren-3-yl (2-guanidinoethyl)carbamate, hydrochloride salt] | – | 12.7 mV |
| CC(C)CCC[C@@H](C)[C@H]1CC[C@H]2[C@@H]3CC=C4C[C@@H](OC(=O)N(CCCN)CCCCN)CC[C@]4(C)[C@H]3CC[C@]12C [SA29, (3S,8S,9S,10R,13R,14S,17R)-10,13-Dimethyl-17-((R)-6-methylheptan-2-yl)-2,3,4,7,8,9,10,11,12,13,14,15,16,17-tetradecahydro-1H-cyclopenta[a]phenanthren-3-yl (4-aminobutyl)(3-aminopropyl)carbamate dihydrochloride] | – | 8.3 mV |
| CC(C)CCC[C@@H](C)[C@H]1CC[C@H]2[C@@H]3CC=C4C[C@@H](OC(=O)NCCCNCCCCN)CC[C@]4(C)[C@H]3CC[C@]12C [SA30, (3S,8S,9S,10R,13R,14S,17R)-10,13-Dimethyl-17-((R)-6-methylheptan-2-yl)-2,3,4,7,8,9,10,11,12,13,14,15,16,17-tetradecahydro-1H-cyclopenta[a]phenanthren-3-yl (3-((4-aminobutyl)amino)propyl)carbamate dihydrochloride] | – | 8.7 mV |
| CC(C)CCC[C@@H](C)[C@H]1CC[C@H]2[C@@H]3CC=C4C[C@@H](OC(=O)CCC(=O)N(CCCN)CCCCN)CC[C@]4(C)[C@H]3CC[C@]12C [SA31, (3S,8S,9S,10R,13R,14S,17R)-10,13-Dimethyl-17-((R)-6-methylheptan-2-yl)-2,3,4,7,8,9,10,11,12,13,14,15,16,17-tetradecahydro-1H-cyclopenta[a]phenanthren-3-yl 4-((4-aminobutyl)(3-aminopropyl)amino)-4-oxobutanoate dihydrochloride] | – | 8.6 mV |
